Results as given in patent US8633183B2 (priority 2010, dated 2014).

biological target: PI3Kalpha (Homo sapiens (Human), UniProt P42336); conditions: read-out: IC50 PI3K
Sequence (P42336 whole entry, looked up): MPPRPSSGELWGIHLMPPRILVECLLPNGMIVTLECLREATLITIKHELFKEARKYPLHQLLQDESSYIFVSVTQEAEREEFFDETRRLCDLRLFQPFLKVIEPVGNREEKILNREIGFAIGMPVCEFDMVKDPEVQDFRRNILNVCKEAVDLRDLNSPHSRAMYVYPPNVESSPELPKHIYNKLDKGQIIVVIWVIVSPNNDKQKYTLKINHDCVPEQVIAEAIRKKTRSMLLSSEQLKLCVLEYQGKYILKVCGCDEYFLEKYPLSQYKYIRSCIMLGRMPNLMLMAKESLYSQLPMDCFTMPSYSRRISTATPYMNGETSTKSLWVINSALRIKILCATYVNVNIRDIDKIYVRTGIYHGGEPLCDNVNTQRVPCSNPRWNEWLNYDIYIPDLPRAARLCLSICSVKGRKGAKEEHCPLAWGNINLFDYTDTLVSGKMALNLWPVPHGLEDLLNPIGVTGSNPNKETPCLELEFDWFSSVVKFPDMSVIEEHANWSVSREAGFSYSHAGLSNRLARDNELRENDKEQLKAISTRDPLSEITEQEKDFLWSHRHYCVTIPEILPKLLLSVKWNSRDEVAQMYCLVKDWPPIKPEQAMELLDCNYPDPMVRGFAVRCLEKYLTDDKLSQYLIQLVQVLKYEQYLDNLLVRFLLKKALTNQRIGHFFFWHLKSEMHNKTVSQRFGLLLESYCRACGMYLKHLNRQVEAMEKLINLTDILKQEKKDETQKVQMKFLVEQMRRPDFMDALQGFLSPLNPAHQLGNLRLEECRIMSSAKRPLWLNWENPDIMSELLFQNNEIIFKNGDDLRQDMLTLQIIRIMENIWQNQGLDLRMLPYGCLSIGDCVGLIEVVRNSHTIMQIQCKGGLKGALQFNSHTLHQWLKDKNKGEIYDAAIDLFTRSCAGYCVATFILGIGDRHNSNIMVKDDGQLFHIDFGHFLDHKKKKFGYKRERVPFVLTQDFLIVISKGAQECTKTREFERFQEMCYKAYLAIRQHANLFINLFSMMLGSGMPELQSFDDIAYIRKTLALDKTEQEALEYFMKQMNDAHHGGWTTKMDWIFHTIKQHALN

Structure (SMILES)	IC50
CCc1ncnc(-c2cc(F)c(C(=O)N3CCN(C)C(=O)C3)c(F)c2)c1C#Cc1ccc(NC)nc1 [Example E-208]	176 nM
CCc1ncnc(-c2cc(F)c(C(=O)N3CC[C@@H](N(C)C)C3)c(F)c2)c1C#Cc1ccc(NC)nc1 [Example E-209]	546 nM
CCc1ncnc(-c2cc(F)c(C(=O)N3CCN(C)CC3)c(F)c2)c1C#Cc1ccc(NC)nc1 [Example E-210]	388 nM
CCc1ncnc(-c2cc(F)c(C(=O)N3CCN(CC)CC3)c(F)c2)c1C#Cc1ccc(NC)nc1 [Example E-211]	472 nM
CCc1ncnc(-c2cc(F)c(C(=O)N3CCN(CC(C)(C)O)CC3)c(F)c2)c1C#Cc1ccc(NC)nc1 [Example E-212]	645 nM
CCc1ncnc(-c2cc(F)c(C(=O)N3CCC(C(C)O)CC3)c(F)c2)c1C#Cc1ccc(NC)nc1 (stereo not shown) [Example E-213]	465 nM
CCc1ncnc(-c2cc(F)c(C(=O)N3CCC(C(C)(C)O)CC3)c(F)c2)c1C#Cc1ccc(NC)nc1 [Example E-214]	600 nM
CCc1ncnc(-c2cc(F)c(C(=O)N3CCN(C4CCOCC4)CC3)c(F)c2)c1C#Cc1ccc(NC)nc1 [Example E-216]	466 nM
CCc1ncnc(-c2cc(F)c(C(=O)N3CCN(CC(F)F)CC3)c(F)c2)c1C#Cc1ccc(NC)nc1 [Example E-217]	327 nM
CCc1ncnc(-c2cc(F)c(C(=O)N3CCC(C)(O)CC3)c(F)c2)c1C#Cc1ccc(NC)nc1 [Example E-218]	362 nM
CCc1ncnc(-c2cc(F)c(C(=O)N3CCN(C=O)CC3)c(F)c2)c1C#Cc1ccc(NC)nc1 [Example E-219]	163 nM
CCc1ncnc(-c2cc(F)c(C(=O)N3CCC(CO)CC3)c(F)c2)c1C#Cc1ccc(NC)nc1 [Example E-220]	293 nM
CCc1ncnc(-c2cc(F)c(C(=O)N3CCN(CCC#N)CC3)c(F)c2)c1C#Cc1ccc(NC)nc1 [Example E-221]	213 nM
CCc1ncnc(-c2ccc(C(=O)N3CCN(C(C)C)CC3)c(OC(F)(F)F)c2)c1C#Cc1ccc(N)nc1 [Example E-222]	530 nM
CCc1ncnc(-c2ccc(C(=O)N3CCN4CCC[C@H]4C3)c(OC(F)(F)F)c2)c1C#Cc1ccc(N)nc1 [Example E-223]	157 nM
CCc1ncnc(-c2ccc(C(=O)N3CC[C@@H](N(C)C)C3)c(OC(F)(F)F)c2)c1C#Cc1ccc(N)nc1 [Example E-224]	402 nM
CCc1ncnc(-c2ccc(C(=O)N3CCN(C)CC3)c(OC(F)(F)F)c2)c1C#Cc1ccc(N)nc1 [Example E-225]	224 nM
CCc1ncnc(-c2ccc(C(=O)N3CCN(CC)CC3)c(OC(F)(F)F)c2)c1C#Cc1ccc(N)nc1 [Example E-226]	196 nM
CCc1ncnc(-c2ccc(C(=O)N3CCC(N4CCOCC4)CC3)c(OC(F)(F)F)c2)c1C#Cc1ccc(N)nc1 [Example E-228]	356 nM
CCc1ncnc(-c2ccc(C(=O)N3CCN(C)CC3)c(C(F)(F)F)c2)c1C#Cc1ccc(N)nc1 [Example E-229]	174 nM
CCc1ncnc(-c2ccc(C(=O)N3CCN(C(C)C)CC3)c(C(F)(F)F)c2)c1C#Cc1ccc(N)nc1 [Example E-230]	279 nM
CCc1ncnc(-c2ccc(C(=O)N3CCN(CC)CC3)c(C(F)(F)F)c2)c1C#Cc1ccc(N)nc1 [Example E-231]	185 nM
CCc1ncnc(-c2ccc(C(=O)N3CCC(C(C)(C)O)CC3)c(C(F)(F)F)c2)c1C#Cc1ccc(N)nc1 [Example E-232]	142 nM
CCc1ncnc(-c2cc(F)c(C(=O)N3CCN(C)CC3)c(Cl)c2)c1C#Cc1ccc(N)nc1 [Example E-233]	89.8 nM

Structure (SMILES)	IC50
CCc1ncnc(-c2cc(F)c(C(=O)N3CCN(C(C)C)CC3)c(Cl)c2)c1C#Cc1ccc(N)nc1 [Example E-234]	263 nM
CCc1ncnc(-c2cc(F)c(C(=O)N3CCN(CC)CC3)c(Cl)c2)c1C#Cc1ccc(N)nc1 [Example E-235]	178 nM
CCc1ncnc(-c2cc(F)c(C(=O)N3CCC(N4CCOCC4)CC3)c(Cl)c2)c1C#Cc1ccc(N)nc1 [Example E-236]	141 nM
CCc1ncnc(-c2cc(F)c(C(=O)N3CCC(C(C)(C)O)CC3)c(Cl)c2)c1C#Cc1ccc(N)nc1 [Example E-237]	121 nM
CCc1ncnc(-c2cc(F)c(C(=O)N3CCN4CCC[C@H]4C3)c(Cl)c2)c1C#Cc1ccc(N)nc1 [Example E-238]	175 nM
CCc1ncnc(-c2cc(F)c(C(=O)N3CCN(C)C(=O)C3)c(Cl)c2)c1C#Cc1ccc(N)nc1 [Example E-239]	46.2 nM
CCc1ncnc(-c2cc(F)c(C(=O)N3CCN(CC(C)(C)O)CC3)c(Cl)c2)c1C#Cc1ccc(N)nc1 [Example E-240]	115 nM
CCc1ncnc(-c2cc(F)c(C(=O)N3CCC(C(C)O)CC3)c(Cl)c2)c1C#Cc1ccc(N)nc1 (stereo not shown) [Example E-241]	91.5 nM
CCc1ncnc(-c2cc(F)c(C(=O)N3CCC(CO)CC3)c(Cl)c2)c1C#Cc1ccc(N)nc1 [Example E-242]	120 nM
CCc1ncnc(-c2cc(F)c(C(=O)N3CCN(CCC#N)CC3)c(Cl)c2)c1C#Cc1ccc(N)nc1 [Example E-243]	110 nM
CCc1ncnc(-c2ccc(C(=O)N3CCN(CCNS(C)(=O)=O)CC3)c(F)c2)c1C#Cc1ccc(N)nc1 [Example E-246]	81.3 nM
CCc1ncnc(-c2ccc(C(=O)N3CCn4c(C)cnc4C3)c(F)c2)c1C#Cc1ccc(N)nc1 [Example E-247]	95.4 nM
CCc1ncnc(-c2ccc(C(=O)N3CCn4cnnc4C3)c(F)c2)c1C#Cc1ccc(N)nc1 [Example E-248]	50.8 nM
CCc1ncnc(-c2ccc(C(=O)N3CCn4ccnc4C3)c(F)c2)c1C#Cc1ccc(N)nc1 [Example E-249]	60.5 nM
CCc1ncnc(-c2ccc(C(=O)N3CCN(CCCS(C)(=O)=O)CC3)c(F)c2)c1C#Cc1ccc(N)nc1 [Example E-250]	92.2 nM
CCc1ncnc(-c2ccc(C(=O)N3CCC4(CC3)CNC4)c(Cl)c2)c1C#Cc1ccc(N)nc1 [Example E-251]	90.7 nM
CCc1ncnc(-c2ccc(C(=O)N3CCN(C4CCC4)CC3)c(Cl)c2)c1C#Cc1ccc(N)nc1 [Example E-252]	48.2 nM
CCc1ncnc(-c2ccc(C(=O)N3CCN(CCNS(C)(=O)=O)CC3)c(Cl)c2)c1C#Cc1ccc(N)nc1 [Example E-253]	30.6 nM
CCc1ncnc(-c2ccc(C(=O)N3CCn4c(C)cnc4C3)c(Cl)c2)c1C#Cc1ccc(N)nc1 [Example E-254]	31.6 nM
CCc1ncnc(-c2ccc(C(=O)N3CCn4cnnc4C3)c(Cl)c2)c1C#Cc1ccc(N)nc1 [Example E-255]	4.83 nM
CCc1ncnc(-c2ccc(C(=O)N3CCn4ccnc4C3)c(Cl)c2)c1C#Cc1ccc(N)nc1 [Example E-256]	23 nM
CCc1ncnc(-c2ccc(C(=O)N3CCN(CCCS(C)(=O)=O)CC3)c(Cl)c2)c1C#Cc1ccc(N)nc1 [Example E-257]	58.3 nM
CCNc1ccc(C#Cc2c(CC)ncnc2-c2ccc(C(=O)N3CCN(CCCS(C)(=O)=O)CC3)c(F)c2)cn1 [Example E-258]	110 nM
CCNc1ccc(C#Cc2c(CC)ncnc2-c2ccc(C(=O)N3CCC(N4CCOCC4)CC3)c(F)c2)cn1 [Example E-259]	209 nM

Structure (SMILES)	IC50
CCNc1ccc(C#Cc2c(CC)ncnc2-c2ccc(C(=O)N3CCn4ccnc4C3)c(F)c2)cn1 [Example E-260]	63.8 nM
CCNc1ccc(C#Cc2c(CC)ncnc2-c2ccc(C(=O)N3CCn4cnnc4C3)c(F)c2)cn1 [Example E-261]	44.3 nM
CCNc1ccc(C#Cc2c(CC)ncnc2-c2ccc(C(=O)N3CCn4c(C)cnc4C3)c(F)c2)cn1 [Example E-262]	134 nM
CCNc1ccc(C#Cc2c(CC)ncnc2-c2ccc(C(=O)N3CCC4(CC3)COC4)c(F)c2)cn1 [Example E-263]	204 nM
CCNc1ccc(C#Cc2c(CC)ncnc2-c2ccc(C(=O)N3CCC4(CC3)CN(C(=O)OC(C)(C)C)C4)c(F)c2)cn1 [Example E-266]	560 nM
CCNc1ccc(C#Cc2c(CC)ncnc2-c2ccc(C(=O)N3CC4(CN(C(=O)OC(C)(C)C)C4)C3)c(F)c2)cn1 [Example E-267]	421 nM
CCc1ncnc(-c2ccc(C(=O)N3CCC4(CC3)CNC4)c(F)c2)c1C#Cc1ccc(N)nc1 [Example E-268]	242 nM
CCc1ncnc(-c2ccc(C(=O)N3CC4(CNC4)C3)c(F)c2)c1C#Cc1ccc(N)nc1 [Example E-269]	252 nM
CCc1ncnc(-c2ccc(C(=O)N3CC4(CNC4)C3)c(Cl)c2)c1C#Cc1ccc(N)nc1 [Example E-270]	328 nM
CCc1ncnc(-c2ccc(C(=O)N3CCN(C4COC4)CC3)c(F)c2)c1C#Cc1ccc(N)nc1 [Example E-271]	113 nM
CCc1ncnc(-c2ccc(C(=O)N3CCC(CN(C)C)CC3)c(F)c2)c1C#Cc1ccc(N)nc1 [Example E-272]	475 nM
CCc1ncnc(-c2ccc(C(=O)N3CCN(C4COC4)CC3)c(Cl)c2)c1C#Cc1ccc(N)nc1 [Example E-273]	119 nM
CCc1ncnc(-c2ccc(C(=O)N3CCC(CN(C)C)CC3)c(Cl)c2)c1C#Cc1ccc(N)nc1 [Example E-274]	445 nM
CCc1ncnc(-c2cc(F)c(C(=O)N3CCN(C4COC4)CC3)c(F)c2)c1C#Cc1ccc(N)nc1 [Example E-275]	141 nM
CCc1ncnc(-c2ccc(C(=O)N3CCN(C4COC4)CC3)c(F)c2)c1C#Cc1ccc(N)nc1C [Example E-280]	153 nM
CCc1ncnc(-c2ccc(C(=O)N3CCC(CN(C)C)CC3)c(F)c2)c1C#Cc1ccc(N)nc1C [Example E-281]	679 nM
CCc1ncnc(-c2cc(F)c(C(=O)N3CCN(C4COC4)CC3)c(Cl)c2)c1C#Cc1ccc(N)nc1 [Example E-282]	173 nM
CCc1ncnc(-c2cc(F)c(C(=O)N3CCC(CN(C)C)CC3)c(Cl)c2)c1C#Cc1ccc(N)nc1 [Example E-283]	446 nM
CCc1ncnc(-c2ccc(C(=O)N3CCN(CCN)CC3)c(Cl)c2)c1C#Cc1ccc(N)nc1 [Example E-284]	181 nM
CCc1ncnc(-c2cc(F)c(C(=O)N3CCC(CN)CC3)c(Cl)c2)c1C#Cc1ccc(N)nc1 [Example E-285]	647 nM
CCc1ncnc(-c2cc(F)c(C(=O)N3CCN(CCN)CC3)c(Cl)c2)c1C#Cc1ccc(N)nc1 [Example E-286]	527 nM
CCc1ncnc(-c2ccc(C(=O)N3CC4(CN(C)C4)C3)c(F)c2)c1C#Cc1ccc(N)nc1 [Example E-287]	288 nM
